Measured values: patent publication US11718864B2, “Cells and method of cell culture” (PFIZER INC., priority 2015, dated 2023)

What was measured:
Format in all cases: cell-based, Chinese hamster
[1] = tested on: GS-CHO cells (Cell line A); assay: Growth (viable cell density) of GS-CHO cells in Medium A spiked with putative inhibitor metabolites; conditions: single metabolite
Description: GS-CHO cells producing a recombinant antibody were inoculated at low viable cell densities (0.1E6 cells/mL) in various conditions in 5 ml volume, 6-well plate cultures. […] The pH of the Medium A, spiked-in with any one of the nine metabolites or any combination of the nine metabolites, was adjusted to 7 before inoculating the cells (on day 0).
For indolelactate, the stock solution (500 mM) was prepared in DMSO. […] All the conditions were run in duplicates or triplicates. Growth of the cells in above described conditions was monitored for 5 or 6 days.

[2] = tested on: BCAT1; assay: Western blot of BCAT1 protein after transient miRNA transfection, CHO parental cell line; conditions: CHO parental cell line transient transfections, vs untransfected and negative control miRNA
Description: miRNA knockdown works by expressing small RNA sequences (approximately 20-25 bases) that are complimentary to a target gene sequence (e.g. BCAT1). The miRNA binds to the messenger RNA (mRNA) of the target gene forming a region of double stranded RNA. […] Micro RNA knockdown of BCAT1 was performed using the BLOCK-iT Inducible Pol II miR RNAi Expression Vector Kit with EmGFP (Invitrogen). Five miRNA oligonucleotide pairs (complementary top and bottom strand of BCAT1) were designed using an online tool called Block-iT RNAi Designer and the DNA oligonucleotides were prepared by Integrated DNA technologies. The oligonucleotide pairs were annealed and ligated into the pcDNA™6.2-GW/EmGFP-miR vector. The vectors (five of them) were sequence confirmed by WyzerBiosciences (Cambridge, Mass.). The five miRNA vectors or a negative control vector named pcDNA™6.2-GW/EmGFP-miR-neg (provided by Invitrogen with the kit) were transfected into CHO parental cell line or CHO cell line B using the GenePulser XCell eletroporator (BioRad) and were left to recover for two days. After two days, cells were either subjected to selection pressure by antibiotic (blasticidin, 10 ug/mL) for generation of stable cell pools (see Example 24), or cell lysates from the transfected cells (or untransfected cells) were prepared in M-PER protein extraction reagent (Thermo Fisher) supplemented with cOmplete, Mini, EDTA-free Protease Inhibitor Cocktail (Roche). The samples were analyzed by western blot using the Novex NuPage system (Thermo Fisher). The system provides polyacrylamide gels, sample loading buffer, sample reductant, gel running buffer, protein mass standard, nitrocellulose membrane, and chemiluminescence detection reagent. The blots were probed with a rabbit polyclonal anti-BCAT1 antibody (AbCam, Cat#ab110761) or a B-Actin antibody (AbCam, Cat#ab8227). The western blots were imaged using a BioRad ChemiDoc system and analyzed for levels of B-actin and BCAT1.

[3] = tested on: CHO cell line A; assay: Growth of CHO cell line A in Medium A supplemented with 2-methylbutyrate or isobutyrate; conditions: at concentrations higher than 1 mM; monitored 5 days
Description: CHO cell line A producing a recombinant antibody were inoculated at low cell densities (0.1E6 cells/mL) in various conditions in triplicates in 6-well plate cultures. The working volume for each well on day 0 was 4 mL. […] The 6-well plates were incubated on a shaking platform in 36.5 C and 5% carbon dioxide. Cell growth in all the conditions was monitored for 5 days.

[4] = at concentrations higher than 0.5 mM or 1 mM

O=C(O)C(O)Cc1ccc(O)cc1 (stereo not drawn) [3-(4-hydroxyphenyl)lactate]
effect on growth of cells [1, 4]: Modest inhibition of growth

miRNA Seq 4.1a: BCAT1 miRNA sequence CACGATGAATCTGTTCCTCTA expressed from pcDNA6.2-GW/EmGFP-miR vector (listed as Cricetulus griseus)
BCAT1 protein level (western blot) [2]: lower level of BCAT1 protein

miRNA Seq 5.1a: BCAT1 miRNA sequence CTTGGGCAAACTGACTGATAT expressed from pcDNA6.2-GW/EmGFP-miR vector (listed as Cricetulus griseus)
BCAT1 protein level (western blot) [2]: lower level of BCAT1 protein

N[C@@H](CCS)C(=O)O [homocysteine]
effect on growth of cells [1, 4]: Modest inhibition of growth

O=C(O)C(O)Cc1c[nH]c2ccccc12 (stereo not drawn) [Indolelactate]
effect on growth of cells ([1]; at concentrations of 3 mM or below, DMSO controls): little or no effect on growth

O=C(O)c1c[nH]c2ccccc12 [Indolecarboxylic acid]
effect on growth of cells ([1]; at concentrations of 1 mM or lower, growth monitored 5 or 6 days): potent negative effect on growth

O=CO [Formate]
effect on growth of cells ([1]; at concentrations 2 mM and beyond): negative effect on growth

miRNA Seq 3.1a: BCAT1 miRNA sequence AGTGGGCACGATGAATCTGTT expressed from pcDNA6.2-GW/EmGFP-miR vector (listed as Cricetulus griseus)
BCAT1 protein level (western blot) [2]: lower level of BCAT1 protein

O=C(O)[C@H](O)Cc1ccccc1 [L-phenyllactate]
effect on growth of cells ([1]; at 1 mM concentration): mild effect on growth

miRNA Seq 2.1a: BCAT1 miRNA sequence TCTGCTGTGAGGACCACTTTG expressed from pcDNA6.2-GW/EmGFP-miR vector (listed as Cricetulus griseus)
BCAT1 protein level (western blot) [2]: lower level of BCAT1 protein

CC(C)C(=O)O [isobutyrate]
cell growth [3]: suppressed

CCC(O)C(=O)O (stereo not drawn) [2-hydroxybutyric acid]
effect on growth of cells [1, 4]: Modest inhibition of growth
